Laboratory results: the kinase profiling compilation of Christmann-Franck et al. (2016)

Columns and labels:
Test in all cases: KINOMEscan competition binding
Conditions in all cases: compound 10.0 µM
BRSK2 (human) = BRSK2 (human) (UniProt Q8IWQ3)
CDK13 (human) = CDK13 (human) (UniProt Q14004)
CDK14 (human) = CDK14 (human) (UniProt O94921)
CDK17 (human) = CDK17 (human) (UniProt Q00537)
CSF1R (human) = CSF1R (human) (UniProt P07333)
CSNK1G2 (human) = CSNK1G2 (human) (UniProt P78368)
DAPK3 (human) = DAPK3 (human) (UniProt O43293)
ERBB2 (human) = ERBB2 (human) (UniProt P04626)
FES (human) = FES (human) (UniProt P07332)
FGFR4 (human) = FGFR4 (human) (UniProt P22455)
FLT4 (human) = FLT4 (human) (UniProt P35916)
GAK (human) = GAK (human) (UniProt O14976)
GRK7 (human) = GRK7 (human) (UniProt Q8WTQ7)
GSK3A (human) = GSK3A (human) (UniProt P49840)
HIPK4 (human) = HIPK4 (human) (UniProt Q8NE63)
LIMK1 (human) = LIMK1 (human) (UniProt P53667)
LIMK1 (human), sequence (P53667 whole entry, looked up): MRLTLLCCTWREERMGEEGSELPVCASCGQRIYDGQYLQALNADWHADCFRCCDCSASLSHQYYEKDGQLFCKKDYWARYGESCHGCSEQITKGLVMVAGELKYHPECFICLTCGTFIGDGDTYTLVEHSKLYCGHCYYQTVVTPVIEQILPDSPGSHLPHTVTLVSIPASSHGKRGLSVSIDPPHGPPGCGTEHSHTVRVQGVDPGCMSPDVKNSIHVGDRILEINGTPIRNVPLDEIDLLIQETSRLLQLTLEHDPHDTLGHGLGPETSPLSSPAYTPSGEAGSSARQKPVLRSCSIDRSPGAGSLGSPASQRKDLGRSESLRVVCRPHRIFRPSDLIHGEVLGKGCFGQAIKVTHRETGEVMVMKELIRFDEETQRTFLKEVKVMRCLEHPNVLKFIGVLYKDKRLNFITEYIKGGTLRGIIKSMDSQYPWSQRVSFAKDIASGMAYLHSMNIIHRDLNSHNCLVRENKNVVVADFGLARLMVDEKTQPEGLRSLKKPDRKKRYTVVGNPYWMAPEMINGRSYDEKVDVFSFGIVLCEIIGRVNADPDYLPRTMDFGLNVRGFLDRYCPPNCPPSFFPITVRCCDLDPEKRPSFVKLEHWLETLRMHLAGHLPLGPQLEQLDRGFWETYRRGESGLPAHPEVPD

MAP2K3 (human) = MAP2K3 (human) (UniProt P46734)
MAP3K9 (human) = MAP3K9 (human) (UniProt P80192)
MAP4K1 (human) = MAP4K1 (human) (UniProt Q92918)
MAP4K1 (human), sequence (Q92918 whole entry, looked up): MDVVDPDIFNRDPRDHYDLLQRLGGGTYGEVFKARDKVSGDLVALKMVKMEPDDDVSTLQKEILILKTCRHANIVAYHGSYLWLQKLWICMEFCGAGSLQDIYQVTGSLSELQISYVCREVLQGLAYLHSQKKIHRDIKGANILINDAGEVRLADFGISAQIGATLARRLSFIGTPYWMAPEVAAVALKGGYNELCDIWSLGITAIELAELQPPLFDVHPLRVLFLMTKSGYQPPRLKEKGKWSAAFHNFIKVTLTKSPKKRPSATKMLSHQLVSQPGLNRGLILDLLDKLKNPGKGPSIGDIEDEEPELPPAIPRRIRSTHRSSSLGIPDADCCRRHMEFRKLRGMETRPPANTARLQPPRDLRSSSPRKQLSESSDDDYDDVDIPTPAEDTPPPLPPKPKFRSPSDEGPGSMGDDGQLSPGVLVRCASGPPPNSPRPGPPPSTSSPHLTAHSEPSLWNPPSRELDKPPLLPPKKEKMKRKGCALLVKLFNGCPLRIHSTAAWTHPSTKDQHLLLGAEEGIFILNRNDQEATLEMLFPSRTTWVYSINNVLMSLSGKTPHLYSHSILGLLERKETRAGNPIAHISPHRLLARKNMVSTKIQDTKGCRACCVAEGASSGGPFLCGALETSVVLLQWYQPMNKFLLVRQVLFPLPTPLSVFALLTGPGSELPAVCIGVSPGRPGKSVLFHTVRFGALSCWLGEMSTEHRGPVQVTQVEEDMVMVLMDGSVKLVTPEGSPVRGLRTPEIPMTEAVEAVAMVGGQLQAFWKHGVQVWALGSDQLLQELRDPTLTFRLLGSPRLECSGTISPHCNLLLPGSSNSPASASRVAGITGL

MAP4K2 (human) = MAP4K2 (human) (UniProt Q12851)
MAP4K5 (human) = MAP4K5 (human) (UniProt Q9Y4K4)
MAP4K5 (human), sequence (Q9Y4K4 whole entry, looked up): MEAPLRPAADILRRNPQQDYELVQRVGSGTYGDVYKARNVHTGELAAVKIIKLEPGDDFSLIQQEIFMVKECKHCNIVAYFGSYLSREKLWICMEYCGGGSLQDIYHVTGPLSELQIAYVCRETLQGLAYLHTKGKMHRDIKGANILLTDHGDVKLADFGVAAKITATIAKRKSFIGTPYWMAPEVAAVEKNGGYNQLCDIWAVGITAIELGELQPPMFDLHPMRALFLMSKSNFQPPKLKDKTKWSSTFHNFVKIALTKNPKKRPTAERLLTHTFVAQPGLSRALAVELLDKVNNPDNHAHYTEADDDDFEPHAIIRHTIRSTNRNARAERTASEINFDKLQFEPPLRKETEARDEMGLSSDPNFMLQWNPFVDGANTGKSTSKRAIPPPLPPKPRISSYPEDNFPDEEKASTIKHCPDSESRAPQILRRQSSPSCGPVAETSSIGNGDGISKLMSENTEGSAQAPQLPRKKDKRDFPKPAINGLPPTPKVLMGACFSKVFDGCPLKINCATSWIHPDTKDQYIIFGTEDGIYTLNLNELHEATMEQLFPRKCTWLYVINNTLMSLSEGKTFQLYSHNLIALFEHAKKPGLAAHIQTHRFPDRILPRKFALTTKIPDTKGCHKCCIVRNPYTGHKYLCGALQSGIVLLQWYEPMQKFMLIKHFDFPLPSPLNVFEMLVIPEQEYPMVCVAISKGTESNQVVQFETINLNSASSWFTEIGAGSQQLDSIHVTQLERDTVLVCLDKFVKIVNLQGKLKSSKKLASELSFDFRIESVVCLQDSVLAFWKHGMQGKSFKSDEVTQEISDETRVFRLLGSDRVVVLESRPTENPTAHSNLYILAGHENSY

MAPK10 (human) = MAPK10 (human) (UniProt P53779)
MAPK9 (human) = MAPK9 (human) (UniProt P45984)
[1] = system: MET (human), P08581 [M1250T]
MLTK (human) = MLTK (human) (UniProt Q9NYL2)
MST4 (human) = MST4 (human) (UniProt Q9P289)
MYLK3 (human) = MYLK3 (human) (UniProt Q32MK0)
NTRK2 (human) = NTRK2 (human) (UniProt Q16620)
PAK4 (human) = PAK4 (human) (UniProt O96013)
PDGFRA (human) = PDGFRA (human) (UniProt P16234)
[2] = system: PIK3CA (human), P42336 [H1047L]
PIP4K2B (human) = PIP4K2B (human) (UniProt P78356)
PLK3 (human) = PLK3 (human) (UniProt Q9H4B4)
PRPF4B (human) = PRPF4B (human) (UniProt Q13523)
RET (human) = RET (human) (UniProt P07949)
SGK3 (human) = SGK3 (human) (UniProt Q96BR1)
SGK3 (human), sequence (Q96BR1 whole entry, looked up): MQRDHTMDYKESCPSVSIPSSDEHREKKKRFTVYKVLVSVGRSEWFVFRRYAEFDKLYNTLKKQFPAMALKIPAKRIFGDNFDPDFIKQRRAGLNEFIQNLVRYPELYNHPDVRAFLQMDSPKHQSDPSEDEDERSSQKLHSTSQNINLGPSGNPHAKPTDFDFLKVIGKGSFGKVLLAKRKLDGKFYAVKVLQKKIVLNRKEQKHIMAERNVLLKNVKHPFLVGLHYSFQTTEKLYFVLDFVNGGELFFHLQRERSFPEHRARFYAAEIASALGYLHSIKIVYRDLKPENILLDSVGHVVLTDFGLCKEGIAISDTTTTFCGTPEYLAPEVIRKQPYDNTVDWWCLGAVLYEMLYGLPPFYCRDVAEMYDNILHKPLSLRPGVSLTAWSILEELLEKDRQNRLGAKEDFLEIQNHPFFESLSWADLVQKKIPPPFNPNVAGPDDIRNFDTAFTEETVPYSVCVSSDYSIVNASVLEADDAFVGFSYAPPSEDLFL

SIK1 (human) = SIK1 (human) (UniProt P57059)
STK33 (human) = STK33 (human) (UniProt Q9BYT3)
STK39 (human) = STK39 (human) (UniProt Q9UEW8)
TBK1 (human) = TBK1 (human) (UniProt Q9UHD2)
TBK1 (human), sequence (Q9UHD2 whole entry, looked up): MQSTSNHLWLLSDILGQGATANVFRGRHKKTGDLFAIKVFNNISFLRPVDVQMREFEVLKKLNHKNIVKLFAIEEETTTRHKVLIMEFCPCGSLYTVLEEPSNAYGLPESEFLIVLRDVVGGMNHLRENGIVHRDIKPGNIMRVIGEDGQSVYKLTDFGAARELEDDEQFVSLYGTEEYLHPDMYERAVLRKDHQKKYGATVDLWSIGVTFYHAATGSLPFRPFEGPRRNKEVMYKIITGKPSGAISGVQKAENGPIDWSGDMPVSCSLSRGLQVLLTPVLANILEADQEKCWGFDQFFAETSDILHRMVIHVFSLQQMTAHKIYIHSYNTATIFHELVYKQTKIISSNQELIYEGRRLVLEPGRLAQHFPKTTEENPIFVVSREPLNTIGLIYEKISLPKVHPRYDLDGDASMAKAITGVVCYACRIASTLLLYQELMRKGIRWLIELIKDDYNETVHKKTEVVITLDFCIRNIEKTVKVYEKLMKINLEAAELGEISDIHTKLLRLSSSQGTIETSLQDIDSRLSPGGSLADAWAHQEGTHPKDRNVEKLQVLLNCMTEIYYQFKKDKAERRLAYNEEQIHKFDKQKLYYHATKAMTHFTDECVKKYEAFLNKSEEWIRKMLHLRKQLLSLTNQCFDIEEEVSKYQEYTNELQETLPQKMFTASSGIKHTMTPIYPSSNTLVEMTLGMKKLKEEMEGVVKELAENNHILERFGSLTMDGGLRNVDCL

CSNK1G2 (human), sequence (P78368 whole entry, looked up): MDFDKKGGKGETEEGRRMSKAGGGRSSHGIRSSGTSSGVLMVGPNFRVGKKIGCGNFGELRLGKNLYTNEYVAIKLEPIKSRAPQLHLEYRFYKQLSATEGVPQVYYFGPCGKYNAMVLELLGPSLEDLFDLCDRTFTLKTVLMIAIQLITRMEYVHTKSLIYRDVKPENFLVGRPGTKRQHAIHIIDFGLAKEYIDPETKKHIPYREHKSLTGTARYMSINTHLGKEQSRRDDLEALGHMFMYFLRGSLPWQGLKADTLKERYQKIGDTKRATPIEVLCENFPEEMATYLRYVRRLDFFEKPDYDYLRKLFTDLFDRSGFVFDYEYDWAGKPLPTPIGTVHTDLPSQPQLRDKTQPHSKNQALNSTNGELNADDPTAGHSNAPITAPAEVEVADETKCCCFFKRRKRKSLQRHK
CDK14 (human), sequence (O94921 whole entry, looked up): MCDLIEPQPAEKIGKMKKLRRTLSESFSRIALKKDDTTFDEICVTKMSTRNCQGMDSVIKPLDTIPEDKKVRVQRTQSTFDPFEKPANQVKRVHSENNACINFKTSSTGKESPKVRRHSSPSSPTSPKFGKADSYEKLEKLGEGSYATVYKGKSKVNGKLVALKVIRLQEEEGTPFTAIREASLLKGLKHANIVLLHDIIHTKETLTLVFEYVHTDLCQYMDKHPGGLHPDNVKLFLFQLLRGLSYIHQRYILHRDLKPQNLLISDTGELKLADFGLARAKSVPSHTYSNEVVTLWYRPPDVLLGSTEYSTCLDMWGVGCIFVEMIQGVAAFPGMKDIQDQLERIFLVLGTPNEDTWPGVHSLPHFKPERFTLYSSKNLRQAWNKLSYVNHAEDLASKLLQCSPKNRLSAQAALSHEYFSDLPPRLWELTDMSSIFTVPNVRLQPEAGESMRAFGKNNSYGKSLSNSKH
CDK17 (human), sequence (Q00537 whole entry, looked up): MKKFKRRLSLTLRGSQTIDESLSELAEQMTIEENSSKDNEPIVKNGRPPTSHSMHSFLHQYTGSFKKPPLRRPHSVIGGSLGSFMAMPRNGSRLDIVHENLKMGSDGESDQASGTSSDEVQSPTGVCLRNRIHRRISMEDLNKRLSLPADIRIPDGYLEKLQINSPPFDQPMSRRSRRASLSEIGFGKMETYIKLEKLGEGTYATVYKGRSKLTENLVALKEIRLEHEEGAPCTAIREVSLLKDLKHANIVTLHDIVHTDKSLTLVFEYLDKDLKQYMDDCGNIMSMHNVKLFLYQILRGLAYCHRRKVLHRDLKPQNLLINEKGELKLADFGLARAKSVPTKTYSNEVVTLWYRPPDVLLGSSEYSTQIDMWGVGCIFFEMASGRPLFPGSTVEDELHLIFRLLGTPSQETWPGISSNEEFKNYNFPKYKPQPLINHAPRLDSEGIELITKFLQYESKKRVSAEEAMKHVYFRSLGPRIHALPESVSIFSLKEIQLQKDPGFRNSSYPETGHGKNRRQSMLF

Compound	kinase still bound, per cent of control (BRSK2 (human))	kinase still bound, per cent of control (CDK13 (human))	kinase still bound, per cent of control (CDK14 (human))	kinase still bound, per cent of control (CDK17 (human))	kinase still bound, per cent of control (CSF1R (human))	kinase still bound, per cent of control (CSNK1G2 (human))	kinase still bound, per cent of control (DAPK3 (human))	kinase still bound, per cent of control (ERBB2 (human))	kinase still bound, per cent of control (FES (human))	kinase still bound, per cent of control (FGFR4 (human))	kinase still bound, per cent of control (FLT4 (human))	kinase still bound, per cent of control (GAK (human))	kinase still bound, per cent of control (GRK7 (human))	kinase still bound, per cent of control (GSK3A (human))	kinase still bound, per cent of control (HIPK4 (human))	kinase still bound, per cent of control (LIMK1 (human))	kinase still bound, per cent of control (MAP2K3 (human))	kinase still bound, per cent of control (MAP3K9 (human))	kinase still bound, per cent of control (MAP4K1 (human))	kinase still bound, per cent of control (MAP4K2 (human))	further results
C=CC(=O)Nc1ccc(C(=O)c2sc(Nc3ccc(N4CCN(C)CC4)cc3OC)nc2N)cc1	72%	100%	82%	78%	58%	25%	2.6%	77%	52%	26%	100%	0.8%	100%	67%	4.6%	79%	69%	93%	84%	4.6%	kinase still bound, per cent of control (MAP4K5 (human)): 87%; kinase still bound, per cent of control (MAPK10 (human)): 6.4%; kinase still bound, per cent of control (MAPK9 (human)): 7%; kinase still bound, per cent of control [1]: 91%; kinase still bound, per cent of control (MLTK (human)): 100%; kinase still bound, per cent of control (MST4 (human)): 99%; kinase still bound, per cent of control (MYLK3 (human)): 100%; kinase still bound, per cent of control (NTRK2 (human)): 100%; kinase still bound, per cent of control (PAK4 (human)): 95%; kinase still bound, per cent of control (PDGFRA (human)): 100%; kinase still bound, per cent of control [2]: 100%; kinase still bound, per cent of control (PIP4K2B (human)): 32%; kinase still bound, per cent of control (PLK3 (human)): 7.8%; kinase still bound, per cent of control (PRPF4B (human)): 100%; kinase still bound, per cent of control (RET (human)): 100%; kinase still bound, per cent of control (SGK3 (human)): 83%; kinase still bound, per cent of control (SIK1 (human)): 83%; kinase still bound, per cent of control (STK33 (human)): 39%; kinase still bound, per cent of control (STK39 (human)): 0%; kinase still bound, per cent of control (TBK1 (human)): 100%
N#Cc1cc(-c2ccnc(Nc3ccc(-n4cnc(-c5cccnc5)n4)cc3)n2)cc(N2CCOCC2)c1	98%	100%	35%	18%	14%	72%	73%	100%	91%	99%	84%	22%	70%	3.5%	13%	62%	18%	22%	26%	10%	kinase still bound, per cent of control (MAP4K5 (human)): 27%; kinase still bound, per cent of control (MAPK10 (human)): 0.15%; kinase still bound, per cent of control (MAPK9 (human)): 0.1%; kinase still bound, per cent of control [1]: 23%; kinase still bound, per cent of control (MLTK (human)): 17%; kinase still bound, per cent of control (MST4 (human)): 62%; kinase still bound, per cent of control (MYLK3 (human)): 100%; kinase still bound, per cent of control (NTRK2 (human)): 100%; kinase still bound, per cent of control (PAK4 (human)): 31%; kinase still bound, per cent of control (PDGFRA (human)): 1.2%; kinase still bound, per cent of control [2]: 100%; kinase still bound, per cent of control (PIP4K2B (human)): 6.9%; kinase still bound, per cent of control (PLK3 (human)): 93%; kinase still bound, per cent of control (PRPF4B (human)): 57%; kinase still bound, per cent of control (RET (human)): 100%; kinase still bound, per cent of control (SGK3 (human)): 100%; kinase still bound, per cent of control (SIK1 (human)): 73%; kinase still bound, per cent of control (STK33 (human)): 88%; kinase still bound, per cent of control (STK39 (human)): 100%; kinase still bound, per cent of control (TBK1 (human)): 35%
